Measured values taken from patent US20090214464A1, “COMPOUNDS FOR FLAVIVIRIDAE TREATMENT” (priority 2004, published 2009).

How the values were obtained:
[1] = system: HCV; conditions: ribavirin alone; cited from earlier work
[2] = system: HCV subgenomic replicon in MH-14 cells; test: immunoblot analysis of HCV NS5A and NS5B proteins in MH-14 HCV replicon cells; format: cell-based; conditions: 7 days
Experimental: (§1) Cell culture: Huh-7 and MH-14 cells, HCV replicon cells, are cultured in Dulbecco's modified Eagle's medium (DMEM) with 10% fetal bovine serum (FBS). PH5CH8 cells are cultured in a 1:1 mixture of DMEM and F12 medium supplemented with 100 ng/ml of epidermal growth factor, 10 μ/ml of insulin, 0.36 μg/ml of hydrocortisone, 5 μg/ml of transferrin, 5 μg/ml of linoleic acid, 20 ng/ml of selenium, 4 μg/ml of glucagon, 10 ng/ml of prolactin, 10 μg/ml of gentamicin, 200 μg/ml of kanamycin, and 2% FBS.
Immunoblot analysis: Immunoblot analysis is performed as described by K. Watashi et al., Virology 2001, 286, 391-402. The primary antibodies used in this experiment are anti-NS5A, anti-NS5B, and anti-β-actin (Sigma) antibodies.
The effect of various cyclosporins of the invention on the replication of the HCV genome using MH-14 cells, in which the HCV subgenomic replicon as shown in FIG. 1A is autonomously replicated.

[3] = system: HCV in PH5CH8 cells (non-neoplastic hepatocyte cell line); test: in vitro HCV infection experiment in PH5CH8 cells; format: cell-based; conditions: PH5CH8 cells treated continuously; untreated cells increase about 10-fold
Experimental: as §1
(§2) Real time RT-PCR analysis: The 5′-UTR of HCV genome RNA is quantified using the ABI PRISM 7700 sequence detector (AppliedBiosystems) as described by T. Takeuchi et al., Gastroenterology, 1999, 116, 636-642. The forward and reverse primers used in this experiment are 5′-[…]-3′ and 5′-[…]-3′, respectively. The fluorogenic probe is 5′-[…]-3′. As an internal control, ribosomal RNA is also quantified using TaqMan Ribosomal RNA Control Reagents (Applied Biosystems).

[4] = system: Balb/c mice spleen cells stimulated with irradiated CBA spleen cells; test: Mixed Lymphocyte Reaction (MLR); format: cell-based
Description: Cyclosporins which bind strongly to cyclophilin but are not immunosuppressive have been identified. A cyclosporin is considered to be non-immunosuppressive when it has an activity in the Mixed Lymphocyte Reaction (MLR) of no more than 5%, preferably no more than 2%, that of cyclosporin A. The Mixed Lymphocyte Reaction is described by T. Meo in “Immunological Methods”, L. Lefkovits and B. Peris, Eds., Academic Press, N.Y. pp. 227-239 (1979). Spleen cells (0.5×10^6) from Balb/c mice (female, 8-10 weeks) are co-incubated for 5 days with 0.5×10^6 irradiated (2000 rads) or mitomycin C treated spleen cells from CBA mice (female, 8-10 weeks). The irradiated allogeneic cells induce a proliferative response in the Balb c spleen cells which can be measured by labeled precursor incorporation into the DNA. […] The IC50 found for the test compound in the MLR is compared with that found for cyclosporin A in a parallel experiment. In addition, non-immunosuppressive cyclosporins lack the capacity of inhibiting CN and the downstream NF-AT pathway.
IR=immunosuppressive Ratio, expressed as a percentage of the activity relative to Cyclosporin A.

[5] = biological target: human recombinant cyclophilin (Homo sapiens, UniProt P62937); test: competitive ELISA test of cyclophilin binding (Binding Ratio); conditions: relative to cyclosporin A in a simultaneous test
Description: A cyclosporin is considered as binding to cyclophilin if it binds to human recombinant cyclophilin at least one fifth as well as does cyclosporin A in the competitive ELISA test described by Quesniaux in Eur. J. Immunol. […] The results are expressed as the Binding Ratio (BR), which is the log to the base 10 of the ratio of the IC50 of the test compound and the IC50 in a simultaneous test of cyclosporin A itself.

[6] = system: HCV subgenomic replicon in MH-14 cells; test: northern blot analysis of replicon RNA in MH-14 cells; format: cell-based; conditions: 1 μg/ml, 7 days
Experimental: as §1
Northern blot analysis: Northern blot analysis is performed as described by H. Kishine et al., Biochem. Biophys. Res. Commun., 2002, 47, 119-125. The probe complementary to the NS5B sequence used in this experiment is described by H. Kishine, supra.
(§3) Replicon RNA is analyzed in MH-14 cells treated with or without a cyclosporin of the invention or IFNα for 7 days by northern blot analysis.

[7] = system: HCV subgenomic replicon in MH-14 cells; conditions: 7th day
Experimental: as §2, §3

Chain of human recombinant cyclophilin (P62937 whole entry): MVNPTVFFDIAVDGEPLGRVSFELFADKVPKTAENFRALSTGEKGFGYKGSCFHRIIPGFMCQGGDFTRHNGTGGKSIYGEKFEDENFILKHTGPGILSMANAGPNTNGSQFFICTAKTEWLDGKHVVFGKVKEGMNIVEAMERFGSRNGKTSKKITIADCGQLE

Compound	IR (immunosuppressive Ratio, percentage of the activity relative to Cyclosporin A) [4]	BR (Binding Ratio: log to the base 10 of the ratio of the IC50 of the test compound and the IC50 of cyclosporin A) [5]	also measured
NC(=O)c1ncn([C@@H]2O[C@H](CO)[C@@H](O)[C@H]2O)n1 [Ribavirin, 1-β-D-ribofuranosyl-1-1,2,4-triazole-3-caroxamide]			patients with serum amino transferase levels reduced to normal [1]: 40 % of patients; serum levels of HCV-RNA [1]: does not lower
IFNα			amount of HCV NS5A and NS5B proteins by immunoblot analysis ([2]; 100 U/ml, positive control): undetectable; increase of HCV RNA genome titer, 5th day versus 1st day post-inoculation [3]: not observed
[8′-hydroxy-MeBmt]^1-Ciclosporin	1.8%	0.35	
[Ethyl-Ile]^4-Ciclosporin		0.1	
[Ethyl-Val]^4-Ciclosporin		0	
[MeAla]^6-Ciclosporin	3.2%	−0.4	
[MeVa]^4-Ciclosporin		0.1	
[MeVal]^5-Ciclosporin	5.3%	0.4	
[Melle]^4-Ciclosporin		−0.2	amount of HCV NS5A and NS5B proteins by immunoblot analysis ([2]; 1 μg/ml): undetectable; amount of replicon RNA by northern blot [6]: undetectable level; level of HCV RNA relative to the original [7]: about 1/400; increase of HCV RNA genome titer, 5th day versus 1st day post-inoculation [3]: not observed
[γ-hydroxy-MeLeu]^9-Ciclosporin	2.9%	0.15	
